Measured values taken from the supplement of paper PMC10307832.

Columns and labels:
Experiment in all cases: relative viability (nuclei count vs DMSO), 5 days (fraction); higher = more cells survive
[1] = compound: C1=CC(=CC=C1NC(=S)NNC2=C(C=C(C=C2[N+](=O)[O-])C(F)(F)F)[N+](=O)[O-])F [Kobe2602] + Cc1cc(Nc2cc(N3CCN(C)CC3)nc(Sc3ccc(NC(=O)C4CC4)cc3)n2)n[nH]1 [Tozasertib] (partner 0.1 µM)
How it was run: (§1)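 Five library-drug doses in √10 steps were combined with a fixed anchor-drug dose, or a single drug was given alone, by pin tool to lung cancer cell lines in 1536-well plates the day after seeding. Nuclei were stained and counted after 5 days. Relative viability is the nuclei count in treated wells over that in vehicle wells, taken as the median of duplicate plates.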

[2] = compound: O[C@@H](COc1cccc2ncccc12)CN1CCN([C@@H]2c3ccccc3[C@@H]3[C@H](c4ccccc42)C3(F)F)CC1 [Zosuquidar] + CC(C)C[C@H](NC(=O)[C@H](Cc1ccccc1)NC(=O)c1cnccn1)B(O)O [Bortezomib] (partner 0.002 µM)
How it was run: as §1

[3] = compound: O[C@@H](COc1cccc2ncccc12)CN1CCN([C@@H]2c3ccccc3[C@@H]3[C@H](c4ccccc42)C3(F)F)CC1 [Zosuquidar] + CS(=O)(=O)N1CCN(Cc2cc3nc(-c4cccc5[nH]ncc45)nc(N4CCOCC4)c3s2)CC1 [Pictilisib] (partner 1 µM)
How it was run: as §1

[4] = compound: O[C@@H](COc1cccc2ncccc12)CN1CCN([C@@H]2c3ccccc3[C@@H]3[C@H](c4ccccc42)C3(F)F)CC1 [Zosuquidar] + O=C(c1cc(Cc2n[nH]c(=O)c3ccccc23)ccc1F)N1CCN(C(=O)C2CC2)CC1 [Olaparib] (partner 8 µM)
How it was run: as §1

Row | Cell Line | relative viability ([1]; first compound 0.2 µM) | relative viability ([1]; first compound 0.6325 µM) | relative viability ([1]; first compound 2 µM) | relative viability ([1]; first compound 6.325 µM) | relative viability ([1]; first compound 20 µM) | relative viability ([2]; first compound 0.01 µM) | relative viability ([2]; first compound 0.03162 µM) | relative viability ([2]; first compound 0.1 µM) | relative viability ([2]; first compound 0.3162 µM) | relative viability ([2]; first compound 1 µM) | relative viability ([3]; first compound 0.01 µM) | relative viability ([3]; first compound 0.03162 µM) | relative viability ([3]; first compound 0.1 µM) | relative viability ([3]; first compound 0.3162 µM) | relative viability ([3]; first compound 1 µM) | relative viability ([4]; first compound 0.01 µM) | relative viability ([4]; first compound 0.03162 µM) | relative viability ([4]; first compound 0.1 µM) | relative viability ([4]; first compound 0.3162 µM) | relative viability ([4]; first compound 1 µM)
1 | COR-L 105 | 0.364 | 0.322 | 0.371 | 0.401 | 0.366 | 0.738 | 0.742 | 0.899 | 1.16 | 0.874 | 0.404 | 0.383 | 0.418 | 0.492 | 0.351 | 0.641 | 0.711 | 0.662 | 0.761 | 0.582
2 | NCI-H2009 | 0.713 | 0.801 | 0.619 | 0.715 | 0.7 | 0.98 | 0.917 | 0.737 | 1.16 | 0.966 | 0.837 | 0.88 | 0.677 | 1.02 | 0.822 | 0.631 | 0.611 | 0.684 | 0.639 | 0.65
3 | RERF-LC-KJ | 0.492 | 0.528 | 0.473 | 0.285 | 0.271 | 1.17 | 1.16 | 1.17 | 1.18 | 0.992 | 0.467 | 0.586 | 0.536 | 0.679 | 0.57 | 0.802 | 0.985 | 0.878 | 1.01 | 0.855
4 | NCI-H2085 | 0.736 | 0.772 | 0.775 | 0.567 | 0.751 | 1.11 | 0.987 | 0.852 | 1.1 | 1.06 | 0.446 | 0.543 | 0.441 | 0.474 | 0.478 | 0.706 | 0.809 |  | 0.736 | 0.751
5 | NCI-H2405 | 0.804 | 0.758 | 0.732 | 0.767 | 0.853 | 0.931 | 0.974 | 0.861 | 1.02 | 0.959 | 0.512 | 0.351 | 0.467 | 0.529 | 0.363 | 0.903 | 0.758 | 0.756 | 0.95 | 0.829
6 | ABC-1 | 0.201 | 0.181 |  | 0.216 | 0.215 | 0.361 | 0.328 | 0.322 | 0.379 | 0.269 | 0.756 | 0.661 | 0.724 | 0.743 | 0.679 | 0.892 | 0.684 | 1.09 | 0.78 | 0.901
7 | 201T | 0.94 | 0.968 | 0.966 | 0.924 | 0.881 | 1.09 | 1.05 | 0.939 | 1.05 | 1.06 | 0.659 | 0.683 | 0.573 | 0.677 | 0.665 | 0.801 | 0.821 | 0.816 | 0.836 | 0.862
8 | NCI-H1755 | 0.638 | 0.596 | 0.557 | 0.608 | 0.554 | 0.923 | 0.873 | 0.901 | 1.12 | 0.934 | 0.415 | 0.452 | 0.318 | 0.497 | 0.484 | 0.873 | 0.88 | 0.778 | 0.92 | 0.867
